From the supplement of paper PMC10307832

Tests used:
Test in all cases: relative viability (nuclei count vs DMSO), 5 days (fraction); higher = more cells survive
[1] = compound: CC1=C(C(=O)N2C=CSC2=N1)CCN3CCC(=C(C4=CC=CC=C4)C5=CC=C(C=C5)F)CC3 + COc1cccc2cc(-c3nc([C@H]4CC[C@H](C(=O)O)CC4)n4ncnc(N)c34)[nH]c12 [OSI-027] (partner 0.5 µM)
How it was run: (§1)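 Five library-drug doses in √10 steps were combined with a fixed anchor-drug dose, or a single drug was given alone, by pin tool to lung cancer cell lines in 1536-well plates the day after seeding. Nuclei were stained and counted after 5 days. Relative viability is the nuclei count in treated wells over that in vehicle wells, taken as the median of duplicate plates.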

[2] = compound: CC1=C(C(=O)N2C=CSC2=N1)CCN3CCC(=C(C4=CC=CC=C4)C5=CC=C(C=C5)F)CC3 + CS(=O)(=O)CCNCc1ccc(-c2ccc3ncnc(Nc4ccc(OCc5cccc(F)c5)c(Cl)c4)c3c2)o1 [Lapatinib] (partner 2 µM)
How it was run: as §1

[3] = compound: CC1=C(C(=O)N2C=CSC2=N1)CCN3CCC(=C(C4=CC=CC=C4)C5=CC=C(C=C5)F)CC3 + C[C@]1(O)C[C@@H](c2nc(-c3ccc4ccc(-c5ccccc5)nc4c3)c3c(N)nccn32)C1 [Linsitinib] (partner 1 µM)
How it was run: as §1

[4] = compound: CC1=C(C(=O)N2C=CSC2=N1)CCN3CCC(=C(C4=CC=CC=C4)C5=CC=C(C=C5)F)CC3 + Cc1nc(NC(=O)N2CCC[C@H]2C(N)=O)sc1-c1ccnc(C(C)(C)C(F)(F)F)c1 [Alpelisib] (partner 2 µM)
How it was run: as §1

| Cell Line | relative viability ([1]; first compound 0.08 µM) | relative viability ([1]; first compound 0.253 µM) | relative viability ([1]; first compound 0.8 µM) | relative viability ([1]; first compound 2.53 µM) | relative viability ([1]; first compound 8 µM) | relative viability ([2]; first compound 0.08 µM) | relative viability ([2]; first compound 0.253 µM) | relative viability ([2]; first compound 0.8 µM) | relative viability ([2]; first compound 2.53 µM) | relative viability ([2]; first compound 8 µM) | relative viability ([3]; first compound 0.08 µM) | relative viability ([3]; first compound 0.253 µM) | relative viability ([3]; first compound 0.8 µM) | relative viability ([3]; first compound 2.53 µM) | relative viability ([3]; first compound 8 µM) | relative viability ([4]; first compound 0.08 µM) | relative viability ([4]; first compound 0.253 µM) | relative viability ([4]; first compound 0.8 µM) | relative viability ([4]; first compound 2.53 µM) | relative viability ([4]; first compound 8 µM) |
| --- | --- | --- | --- | --- | --- | --- | --- | --- | --- | --- | --- | --- | --- | --- | --- | --- | --- | --- | --- | --- |
| 201T | 0.579 | 0.663 | 0.81 | 0.842 | 0.695 | 1.12 | 1.08 | 0.999 | 1.09 | 1.11 | 1.05 | 1.01 | 1 | 1.08 | 1.13 | 1.02 | 1.04 | 1.08 | 1.07 | 0.852 |
| A549 |  |  |  |  |  | 1.06 | 0.884 | 0.922 | 1.23 | 0.797 |  | 0.61 | 0.658 | 0.432 | 0.309 | 0.915 | 0.923 | 0.747 | 0.871 | 0.275 |
| A-427 | 0.421 | 0.364 | 0.421 | 0.49 | 0.432 | 1.12 | 0.962 | 0.994 | 1.15 | 1.08 | 1.06 | 1.05 | 1.13 | 1.17 | 0.959 | 1.15 | 1.11 | 1.05 | 1.1 | 1.08 |
| ABC-1 | 0.547 | 0.394 | 0.434 | 0.372 | 0.266 | 1.11 | 1.18 | 1.14 | 1.3 | 0.674 | 0.655 | 0.894 | 0.723 | 1.02 | 0.504 | 0.989 | 0.935 | 1.08 | 1.09 | 0.605 |
| BEN | 0.294 | 0.311 | 0.283 | 0.318 | 0.278 | 0.507 | 0.626 | 0.798 | 0.757 | 0.53 | 0.781 | 0.967 | 1.07 | 0.847 | 0.79 | 0.826 | 1.09 | 1.09 | 0.974 | 0.69 |
| CAL-12T | 0.826 | 0.718 | 0.603 | 0.586 | 0.428 |  | 0.588 | 0.754 | 0.668 | 0.644 | 0.451 | 0.894 | 0.833 | 0.676 | 0.634 | 0.811 | 1.34 | 1.45 | 1.49 | 0.589 |
| COR-L23 | 0.778 | 0.667 | 0.702 | 0.778 | 0.619 | 1.13 | 1.1 | 1.12 | 0.921 | 0.638 | 0.84 | 0.915 | 1.04 | 1.13 | 0.505 | 0.755 | 1.05 | 0.818 | 0.877 | 0.667 |
| COR-L 105 | 0.682 | 0.726 | 0.695 | 0.835 | 0.644 | 0.33 | 0.443 | 0.336 | 0.379 | 0.401 | 0.892 | 0.832 | 1.05 | 0.96 | 0.597 | 0.984 | 1.09 | 1.16 | 1.1 | 0.963 |
| Calu-6 |  |  |  |  |  | 1.04 | 0.925 | 1.1 | 1.4 | 0.817 | 0.927 | 1.14 | 0.975 | 0.875 | 0.464 | 1.02 | 1.06 | 0.91 | 0.997 | 0.807 |
| ChaGo-K-1 | 0.595 | 0.636 | 0.533 | 0.584 | 0.489 |  |  |  |  |  |  |  |  |  |  |  |  |  |  |  |
| EKVX | 0.46 | 0.708 | 0.777 | 0.744 | 0.545 | 0.173 | 0.227 | 0.194 | 0.19 | 0.231 | 0.999 | 1.05 | 1.09 | 0.951 | 0.839 | 0.719 | 0.868 | 1.05 | 1.14 | 0.652 |
| EMC-BAC-2 | 0.35 | 0.353 | 0.372 | 0.37 | 0.291 | 0.744 | 0.924 | 0.89 | 0.877 | 0.773 | 0.8 | 0.804 | 0.882 | 0.825 | 0.627 | 0.639 | 0.673 | 0.806 | 0.824 | 0.588 |
| EPLC-272H | 0.26 | 0.282 | 0.316 | 0.262 | 0.235 |  | 0.921 | 0.809 | 1.09 | 0.873 |  | 1.17 | 1.2 | 1.09 | 0.984 |  | 0.878 | 1.05 | 0.852 | 0.737 |
| H3255 | 0.474 | 0.572 | 0.65 | 0.594 | 0.512 | 0.221 | 0.32 | 0.249 | 0.309 | 0.246 | 1 | 0.888 | 1.02 | 1.03 | 0.726 | 0.52 | 0.623 | 0.727 | 0.712 | 0.587 |
| HARA | 0.379 | 0.577 | 0.534 | 0.454 | 0.275 | 1.01 | 1.06 | 0.873 | 0.82 | 0.625 | 0.956 | 1.09 | 1.08 | 0.917 | 0.54 | 0.932 | 0.668 | 1.05 | 0.77 | 0.623 |
| HCC-15 | 0.593 | 0.628 | 0.707 | 0.782 | 0.507 | 0.961 | 0.667 | 0.885 | 1.02 | 0.73 | 0.931 | 0.931 | 0.942 | 1.04 | 0.744 | 0.875 | 0.958 | 0.972 | 1.04 | 0.69 |
| HCC-44 | 0.69 | 0.548 |  | 0.494 | 0.491 | 1.07 | 0.83 | 1 | 1.07 | 0.787 | 0.689 | 0.818 | 0.662 | 0.686 | 0.579 | 0.906 | 0.736 | 0.863 | 0.73 | 0.805 |
